Experimental data: patent publication US20070060621A1, “Methods and compositions for the administration of prodrugs of proton pump inhibitors” (priority 2004, published 2007)

What was measured:
Type in all cases: physicochemical
[1] = Stability of compound 1 at 0.02 mg/mL at 25° C. in water, NaCl salt and phosphate buffer; conditions: for % Remaining: 25° C., 0.02 mg/mL; for Half Life (t½) / Rate Constant (k) / Shelf life (t90%): first order decay from 3-29 days
Experimental: FIG. 1 is a plot of the % of the original concentration of compound remaining over time. The original concentration of compound 1 was 0.02 mg/mL, and stability was assessed at 25° C. in 1) water, 2) NaCl salt (μ=0.15), 3) NaCl salt (μ=0.5), 4) phosphate buffer (pH 7.0, μ=0.15), and 5) phosphate buffer (pH 7.0, μ=0.5).
FIG. 2 is a log plot of the data of FIG. 1.
The stability of compound 1 at a concentration of 0.02 mg/mL in water at 25° C. was assessed in 1) water, 2) NaCl salt (μ=0.15), 3) NaCl salt (μ=0.5), 4) phosphate buffer (pH 7.0, μ=0.15), and 5) phosphate buffer (pH 7.0, μ=0.5). For the buffer solutions, the ionic strength (μ) was adjusted using sodium chloride, and the buffer concentration of the two solutions was equal (0.1 M). The amount of remaining compound 1 is presented as the % of the original concentration of 0.02 mg/mL for each sample in Table 3a and in FIG. 1.

[2] = Stability profile at 25° C. in buffered aqueous solutions
Source text: The base-catalyzed degradation is unexpected because the commercial proton pump inhibitors are stabilized in aqueous solutions by adjusting the solution to high pH.

[3] = Hygroscopicity of compound 1 on storage
Experimental: The physicochemical properties of compound 1 were analyzed.

[4] = Na phosphate buffer, u = 0.15, pH 7.0, 25° C.
[5] = Na phosphate buffer, u = 0.5, pH 7.0, 25° C.
[6] = pH 3, Citric Acid (0.1 M)/Na2HPO4 (0.2 M)
[7] = pH 5, Citric Acid (0.1 M)/Na2HPO4 (0.2 M)
[8] = pH 7, sodium phosphate (0.1-0.2 M)
[9] = pH 7.4, sodium phosphate (0.1-0.2 M)
[10] = pH 9, sodium phosphate (0.1-0.2 M)
[11] = pH 10, sodium phosphate (0.1-0.2 M)

% Remaining ([1]; Day 1, NaCL, u = 0.15 (pH 6.6)): 84.134%
% Remaining ([1]; Day 1, NaCL, u = 0.5 (pH 6.2)): 87.598%
% Remaining ([1]; Day 1, Phosphate buffer, u = 0.15 (pH 7.0)): 96.294%
% Remaining ([1]; Day 1, Phosphate buffer, u = 0.5 (pH 7.0)): 96.709%
% Remaining ([1]; Day 1, Water (pH 7.2)): 92.212%
% Remaining ([1]; Day 3, NaCL, u = 0.15 (pH 6.6)): 76.960%
% Remaining ([1]; Day 3, NaCL, u = 0.5 (pH 6.2)): 80.750%
% Remaining ([1]; Day 3, Phosphate buffer, u = 0.15 (pH 7.0)): 90.597%
% Remaining ([1]; Day 3, Phosphate buffer, u = 0.5 (pH 7.0)): 90.087%
% Remaining ([1]; Day 3, Water (pH 7.2)): 86.085%
% Remaining ([1]; Day 4, NaCL, u = 0.15 (pH 6.6)): 77.037%
% Remaining ([1]; Day 4, NaCL, u = 0.5 (pH 6.2)): 78.348%
% Remaining ([1]; Day 4, Phosphate buffer, u = 0.15 (pH 7.0)): 87.434%
% Remaining ([1]; Day 4, Phosphate buffer, u = 0.5 (pH 7.0)): 85.994%
% Remaining ([1]; Day 4, Water (pH 7.2)): 86.410%
% Remaining ([1]; Day 7, NaCL, u = 0.15 (pH 6.6)): 75.398%
% Remaining ([1]; Day 7, NaCL, u = 0.5 (pH 6.2)): 76.513%
% Remaining ([1]; Day 7, Phosphate buffer, u = 0.15 (pH 7.0)): 80.995%
% Remaining ([1]; Day 7, Phosphate buffer, u = 0.5 (pH 7.0)): 76.165%
% Remaining ([1]; Day 7, Water (pH 7.2)): 84.569%
% Remaining ([1]; Day 9, NaCL, u = 0.15 (pH 6.6)): 71.861%
% Remaining ([1]; Day 9, NaCL, u = 0.5 (pH 6.2)): 74.482%
% Remaining ([1]; Day 9, Phosphate buffer, u = 0.15 (pH 7.0)): 76.176%
% Remaining ([1]; Day 9, Phosphate buffer, u = 0.5 (pH 7.0)): 70.768%
% Remaining ([1]; Day 9, Water (pH 7.2)): 84.452%
% Remaining ([1]; Day 11, NaCL, u = 0.15 (pH 6.6)): 73.763%
% Remaining ([1]; Day 11, NaCL, u = 0.5 (pH 6.2)): 74.312%
% Remaining ([1]; Day 11, Phosphate buffer, u = 0.15 (pH 7.0)): 74.520%
% Remaining ([1]; Day 11, Phosphate buffer, u = 0.5 (pH 7.0)): 67.826%
% Remaining ([1]; Day 11, Water (pH 7.2)): 86.930%
% Remaining ([1]; Day 13, NaCL, u = 0.15 (pH 6.6)): 72.390%
% Remaining ([1]; Day 13, NaCL, u = 0.5 (pH 6.2)): 71.691%
% Remaining ([1]; Day 13, Phosphate buffer, u = 0.15 (pH 7.0)): 68.020%
% Remaining ([1]; Day 13, Water (pH 7.2)): 83.661%
% Remaining ([1]; Day 15, NaCL, u = 0.15 (pH 6.6)): 67.858%
% Remaining ([1]; Day 15, NaCL, u = 0.5 (pH 6.2)): 68.167%
% Remaining ([1]; Day 15, Phosphate buffer, u = 0.15 (pH 7.0)): 62.389%
% Remaining ([1]; Day 15, Phosphate buffer, u = 0.5 (pH 7.0)): 52.494%
% Remaining ([1]; Day 15, Water (pH 7.2)): 80.913%
% Remaining ([1]; Day 20, NaCL, u = 0.15 (pH 6.6)): 64.953%
% Remaining ([1]; Day 20, NaCL, u = 0.5 (pH 6.2)): 65.173%
% Remaining ([1]; Day 20, Phosphate buffer, u = 0.15 (pH 7.0)): 54.360%
% Remaining ([1]; Day 20, Phosphate buffer, u = 0.5 (pH 7.0)): 44.057%
% Remaining ([1]; Day 20, Water (pH 7.2)): 78.768%
% Remaining ([1]; Day 24, NaCL, u = 0.15 (pH 6.6)): 64.848%
% Remaining ([1]; Day 24, NaCL, u = 0.5 (pH 6.2)): 65.753%
% Remaining ([1]; Day 24, Phosphate buffer, u = 0.15 (pH 7.0)): 50.246%
% Remaining ([1]; Day 24, Phosphate buffer, u = 0.5 (pH 7.0)): 39.181%
% Remaining ([1]; Day 24, Water (pH 7.2)): 79.915%
% Remaining ([1]; Day 29, NaCL, u = 0.15 (pH 6.6)): 62.731%
% Remaining ([1]; Day 29, NaCL, u = 0.5 (pH 6.2)): 62.867%
% Remaining ([1]; Day 29, Phosphate buffer, u = 0.15 (pH 7.0)): 43.321%
% Remaining ([1]; Day 29, Phosphate buffer, u = 0.5 (pH 7.0)): 32.626%
% Remaining ([1]; Day 29, Water (pH 7.2)): 78.412%
Half Life (t½) [1, 4]: 24.063 days
Rate Constant (k) [1, 4]: 0.0288 day⁻¹
Shelf life (t90%) [1, 4]: 3.658 days
Half Life (t½) [1, 5]: 17.589 days
Rate Constant (k) [1, 5]: 0.0394 day⁻¹
Shelf life (t90%) [1, 5]: 2.674 days
Half Life (t½) ([1]; NaCl, u = 0.15, pH 6.6, 25° C.): 80.581 days
Rate Constant (k) ([1]; NaCl, u = 0.15, pH 6.6, 25° C.): 0.0086 day⁻¹
Shelf life (t90%) ([1]; NaCl, u = 0.15, pH 6.6, 25° C.): 12.251 days
Half Life (t½) ([1]; NaCl, u = 0.5, pH 6.6, 25° C.): 75.326 days
Rate Constant (k) ([1]; NaCl, u = 0.5, pH 6.6, 25° C.): 0.0092 day⁻¹
Shelf life (t90%) ([1]; NaCl, u = 0.5, pH 6.6, 25° C.): 11.452 days
Half Life (t½) ([1]; water, pH 7.2, 25° C.): 161.163 days
Rate Constant (k) ([1]; water, pH 7.2, 25° C.): 0.0043 day⁻¹
Shelf life (t90%) ([1]; water, pH 7.2, 25° C.): 24.502 days
Degradation Rate Constant (k) ([2]; No buffer): 0.0002 h⁻¹
Half-life (t1/2) ([2]; No buffer): 2863.6 h
Shelf life (t90%) ([2]; No buffer): 435.4 h
Degradation Rate Constant (k) ([2]; pH 1, 0.1 M HCl): 0.194 h⁻¹
Half-life (t1/2) ([2]; pH 1, 0.1 M HCl): 3.6 h
Shelf life (t90%) ([2]; pH 1, 0.1 M HCl): 0.5 h
Degradation Rate Constant (k) [2, 6]: 0.009 h⁻¹
Half-life (t1/2) [2, 6]: 78.0 h
Shelf life (t90%) [2, 6]: 11.9 h
Degradation Rate Constant (k) [2, 7]: 0.008 h⁻¹
Half-life (t1/2) [2, 7]: 89.2 h
Shelf life (t90%) [2, 7]: 13.6 h
Degradation Rate Constant (k) [2, 8]: 0.002 h⁻¹
Half-life (t1/2) [2, 8]: 286.8 h
Shelf life (t90%) [2, 8]: 43.6 h
Degradation Rate Constant (k) [2, 9]: 0.002 h⁻¹
Half-life (t1/2) [2, 9]: 291.2 h
Shelf life (t90%) [2, 9]: 44.3 h
Degradation Rate Constant (k) [2, 10]: 0.030 h⁻¹
Half-life (t1/2) [2, 10]: 23.0 h
Shelf life (t90%) [2, 10]: 3.5 h
Degradation Rate Constant (k) [2, 11]: 0.298 h⁻¹
Half-life (t1/2) [2, 11]: 2.3 h
Shelf life (t90%) [2, 11]: 0.4 h
hygroscopicity ([3]; 14 days of storage at 25° C. at 75% relative humidity): hygroscopic
weight gain ([3]; after 14 days of storage at 25° C. at 75% relative humidity): 9%
Compound: COc1ccc2c(c1)nc([S+]([O-])Cc1ncc(C)c(OC)c1C)n2S(=O)(=O)c1ccc(OCC(=O)O)cc1 (centres unmarked) [Compound 1]
